These results are taken from article PMC10363480 (Plant Communications, 2023).

Holding throughout (type): cell-based
Experiment [1] deals with Escherichia coli strain BW25113. Description: Minimum inhibitory concentration / antimicrobial activity growth assay. The conditions noted are these: growth assay with dilutions of the AMP, Escherichia coli strain BW25113, Figure 3D.
In experiment [2] the test system is mitochondria or chloroplast of Chlamydomonas reinhardtii. Kind of experiment: Subcellular localization of Venus reporter by epifluorescence microscopy (manual targeting assignment). The settings on record: for mitochondrial targeting upon sole addition of cTP-N (^cP): 15 N-terminal residues of RCA1-cTP added, no C-terminal element; for mitochondrial targeting upon sole addition of cTP-N (^cP) / targeting when combining cTP-N with mTP-C (^cP^m) / chloroplast targeting when combining cTP-N with cTP-C (^cP^c): Figure 2; for mitochondrial targeting upon addition of mTP-C (P^m): C-terminal element of CAG2-mTP added to the named peptide, Figure 2 rows C and D. In outline:
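Targeting peptide variants fused to Venus reporter, transformed into Chlamydomonas wild-type T222+ (CC-5101); three independent transformant lines per construct. Localization assigned manually from epifluorescence images using chlorophyll autofluorescence for chloroplast and 0.1 μM MitoTracker Red CMXRos (30 min) for mitochondria. Automated segmentation used for validation.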

Experiment [3] has the same test system. Kind of experiment: Automated image segmentation / quantification of Venus signal (pyrenoid/chlorophyll, mitochondria/cell). The conditions noted are these: for automated image quantification values: unmodified HA-RAMPs, Supplemental Figures 2E, 2F, 5A, 9A. The text has this: A custom ImageJ Macro was written to enable automated image segmentation of epifluorescence micrographs in Fiji. In brief, in a given micrograph, fluorescence intensities were normalized, and individual cells were detected using marker-controlled watershed from the MorphoLibJ library ([Legland et al., 2016]). For each cell, auto-thresholding the chlorophyll channel using the Huang method was used to generate a chlorophyll mask. Separately, the chlorophyll channel was subjected to a series of morphological filters and Gaussian blurring followed by auto-thresholding to finally detect round holes between 0.1 and 5 μm within the ensuing binary image to be saved as a pyrenoid mask. In MitoTracker images, the MitoTracker channel was subjected to morphological filtering followed by auto-thresholding with Otsu to generate a mitochondrial mask. Venus channel intensities were recorded for each compartment. For each cell, rotated images containing binary masks as extra channels were saved. Data were compiled, analyzed, and plotted in R v.3.6.1 (https://www.r-project.org/) using RStudio 2022.07.2+576 (https://www.rstudio.com/).
Automated Image Analysis corroborates targeting
To assess subcellular Venus localisation independently of our manual targeting assignment, 2202 3-channel images containing Venus, chlorophyll and brightfield channels, and 557 4-channel images containing an additional MitoTracker channel, were subjected to automated, quantitative […]
image analysis (Fig. S2).
In the absence of Venus, low chlorophyll autofluorescence is visible in the Venus channel; in the absence of a presequence, Venus accumulates in the cytoplasm, targeting neither to the mitochondria nor to the chloroplast. When equipped with the chimeric B15Kc presequence, Venus […]
previously using confocal microscopy and biochemistry on isolated organelles (Garrido et al., When targeted to the chloroplast, Venus not only colocalizes with chlorophyll but also accumulates within the pyrenoid. The pyrenoid can be detected as a region of lower chlorophyll fluorescence at the base of the cup-shaped chloroplast, as visualized in Fig. S2B where the pyrenoid is labelled fluorescently using an RBCS-Venus fusion protein. Given that chlorophyll autofluorescence renders colocalization of Venus channel signal with the chlorophyll channel potentially misleading in constructs with low Venus accumulation, we chose to focus on evaluating Venus signal within the pyrenoid for automated image segmentation (Fig. S2C inset). Rather than comparing pyrenoidal Venus to the entire cell, we opted for a comparison with Venus in the rest of the chloroplast excluding the pyrenoid (the chlorophyll region), since strong Venus channel signal from within the pyrenoid should generate high values for a pyrenoid/chlorophyll ratio when Venus is in the chloroplast and low values when Venus is elsewhere. This approach was able to separate chloroplast-targeting constructs very effectively from constructs where Venus localized elsewhere in the cell (Fig. S2C). Only a small region of overlap between the two categories remains (highlighted in blue). Among constructs targeting elsewhere, constructs found in this overlap region typically show low Venus accumulation, e.g. the no-Venus control falls also falls in this region (black diamond). […]

Where [4] appears, read: peptide-Venus reporter construct expressed in Chlamydomonas reinhardtii, manual targeting assignment (Neither / Mitochondria / Chloroplast / Dual; partial = partial targeting).
Where [5] appears, read: manual targeting assignment of the Venus reporter construct in Chlamydomonas: Neither / Mitochondria / Chloroplast / Dual, (partial) = partial targeting.
Setting [6] is: targeting of the Venus reporter fused to the peptide, expressed in Chlamydomonas reinhardtii, manual assignment from epifluorescence microscopy, full or partial.

Where “and” joins values, the source holds several entries; their conditions need not be identical. Identical values can stand only once. Entries after “also recorded” stand apart in the source; their conditions may differ.

For the substance “FLPLLAGLAANFLPKIFCKITRKC [B1E, brevinin-1E, HA-RAMP antimicrobial peptide, reference compound]”, the “minimum inhibitory concentration after replacing all Ks with Rs, compared with the natively K-rich sequence” value in experiment [1] is “increased”. For the same substance, the “mitochondrial targeting upon sole addition of cTP-N (^cP)” value in experiment [2] was “enabled mitochondrial targeting”. In experiment [2] (bare name = K and R versions), the “targeting when combining cTP-N with mTP-C (^cP^m)” value (“targeting … (^cP^m)” below) is on record as “dual targeting”.

On to “GIGKFLHSAKKFGKAFVGEIMNS [MII, magainin 2, HA-RAMP antimicrobial peptide, reference compound]”, for which the “minimum inhibitory concentration after replacing all Ks with Rs, compared with the natively K-rich sequence” value in experiment [1] is listed as “increased”. The “mitochondrial targeting upon addition of mTP-C (P^m)” value in experiment [2] (bare name = K and R versions) is reported as “continued targeting”. Moreover, the “mitochondrial localization upon addition of cTP-C (P^c)” value in experiment [2] (C-terminal element of RCA1-cTP added, Figure 2 rows E and F) is given as “compatible with mitochondrial localization”. Further, the “organelle targeting (Venus reporter localization) by the construct as labelled” value in experiment [2] (peptide inserted upstream of Venus, stable Chlamydomonas lines, epifluorescence, MitoTracker / chlorophyll / pyrenoid co-localization, three independent insertion lines) is “only partial”. Regarding “ALWMTLLKKVLKAAAKAALNAVLVGANA [DS4, dermaseptin S4, HA-RAMP antimicrobial peptide]”, the “minimum inhibitory concentration after replacing all Ks with Rs, compared with the natively K-rich sequence” value in experiment [1] is on record as “increased”. Also, in experiment [2] (bare name = K and R versions), the “chloroplast targeting when combining cTP-N with cTP-C (^cP^c)” value (shortened to “chloroplast targeting … (^cP^c)”) is “failed to show any chloroplast targeting; also recorded: fail to target the chloroplast”. For the same substance, the Targeting entry in experiment [2] (manual assignment printed per cell line of Table S3, Fig.S 7 panel a, Nter sans, Cation K, Cter sans, pODC 82, colony 16, strain 2) was “none”. Also, the Venus.ratio_pyr in experiment [3] (Venus channel signal in the pyrenoid relative to the chlorophyll region, single-cell values, image 1, 3 channels, Cation K, no TP elements, strain 2) is 0.9978 and 0.9365. For the same substance, the Venus.ratio_pyr.norm in experiment [3] (normalized so that construct averages range from 0 to 1, single-cell values, image 1, 3 channels, Cation K, no TP elements, strain 2) was 0.09363. Moreover, the Venus.ratio_cp in experiment [3] (single-cell values (Cell 0, 1, 10, 11, 12), image 1, 3 channels, Nter sans, Cation K, Cter sans, strain 2) is 1.038 and 1.1 and 1.124 and 1.055 and 1.047. Consider “ranatuerin-2G [R2GK, reference compound]”, for which, in experiment [2] (bare name = K and R versions), the “mitochondrial targeting upon addition of mTP-C (P^m)” value is given as “enabled partial mitochondrial targeting” and the “chloroplast targeting … (^cP^c)” value is “fail to target the chloroplast”. Also, in experiment [3], the “automated image quantification values” is given as “high image quantification values”. cecropin-P3 [CP3K, reference compound]: in experiment [2] (bare name = K and R versions), the “chloroplast targeting … (^cP^c)” value is reported as “fail to target the chloroplast” and the “targeting … (^cP^m)” value was “chloroplast targeting”. Further, in experiment [3], the “automated image quantification values” is “high image quantification values”. Consider “GWIRDFGKRIERVGQHTRDATIQTIAVAQQAANVAATLKG [S1D, sarcotoxin-1D, HA-RAMP antimicrobial peptide, reference compound]”, for which the “mitochondrial targeting upon sole addition of cTP-N (^cP)” value in experiment [2] is “enabled mitochondrial targeting”. In experiment [2] (C-terminal element of RCA1-cTP added to the named peptide, Figure 2 rows E and F, bare name = K and R versions), the “chloroplast targeting upon addition of cTP-C (P^c)” value was “enabled chloroplast targeting”. Further, the “targeting … (^cP^m)” value in experiment [2] (bare name = K and R versions) is recorded as “dual targeting”. Regarding “MQVTMKSSAVSGQRVGIGKFLHSAKKFGKAFVGEIMNSLTQTAESFRGVSSQFFDAPNGPSVKQVLIEDEW [c.MII.K.m]”, the Localisation entry in experiment [2] (setting [4]) was “Mitochondria (partial)”. In the case of “MGRIPVRAIRRAGAAIGRGLRAINIASTAHDVYSFFRPRHRRRLTQTAESFRGVSSQFFDAPNGPSVKQVLIEDEW [SIM.R.m]”, the Localisation entry in experiment [2] (setting [5]) is given as “Neither”. The same measure, in the same setting: with “MRYYGNGVSCNRRGCSVDWGRAIGIIGNNAAANLTTGGRAGWRGSVRRAQLQVVASSRKQMGRWRSIDAGVDASDDQ [EHF.R.c]” the entry was “Chloroplast”; with “MGGARVATRSVRRAQLQVVASSRKQMGRWRSIDAGVDASDDQ [CH.R.c]”, “Chloroplast”. As to “MQVTMKSSAVSGQKVGGAKVATKLTQTAESFRGVSSQFFDAPNGPSVKQVLIEDEW [c.CH.K.m]”, the Localisation result in experiment [2] (setting [5]) is given as “Neither”. Consider “MQVTMKSSAVSGQRVNIVVYWNFTLWHMDINARNAGCDGEGSLTQTAESFRGVSSQFFDAPNGPSVKQVLIEDEW [c.RP1.K.m]”, for which the Localisation result in experiment [2] (setting [6]) was “Neither”. Still for that read-out and setting: with “MQVTMKSSAVSGQRVNIVVYWNFTLWHMDINARNAGCDGEGSSVRRAQLQVVASSRKQMGRWRSIDAGVDASDDQ [c.RP1.K.c]” the entry was “Neither”. Still for that read-out and setting: with “MQVTMKSSAVSGQRVFLPLLAGLAANFLPRIFCRITRRCLTQTAESFRGVSSQFFDAPNGPSVKQVLIEDEW [c.B1E.R.m]” the entry was “Dual”. Consider “MGLLLDTLRGAARDIAGIALERLRCRITGCRPLTQTAESFRGVSSQFFDAPNGPSVKQVLIEDEW [R2G.R.m]”, for which the Localisation entry in experiment [2] (setting [5]) was “Mitochondria”. Still for that read-out and setting: with “MSVRRAQLQVVASSRKQMGRWRSIDAGVDASDDQ [-.c]” the entry was “Neither”. With “MKYYGNGVSCNKKGCSVDWGKAIGIIGNNAAANLTTGGKAGWKG [EHF.K]”, the Localisation result in experiment [2] (setting [6]) was “Neither”. For “MGLFSRFNRRRIRSGLIRIIRTAGREAGLEALRTGIDVIGCRIRGECSVRRAQLQVVASSRKQMGRWRSIDAGVDASDDQ [E1S.R.c]”, the Localisation entry in experiment [2] (setting [4]) is “Neither”. Take “MQVTMKSSAVSGQRVMLKRVGQSLVPFARAGSVRRAQLQVVASSRKQMGRWRSIDAGVDASDDQ [c.MH.R.c]”: the Localisation entry in experiment [2] (setting [5]) is recorded as “Chloroplast”.
